What all share (test): SPR (equilibrium)
Assay [1] concerns TZea-927 (full length, G12A, SPR form) (RNA, ribozyme) GGGAAACAAACAAAGCUGUCACCGGAAACUGGAUCUGGUCUGAUGAGUCCCUCCAUGCGACCCAGUGUGAUACGUGGACAGGACAAAACAGCAAAAAAAAAAAAAAAAAAAAAAAA
As to conditions: Na+ (1.5 M NaCl [sic]), Mg2+ 0.5 mM; HBS-N (0.1 M HEPES [sic]), pH 7.4.

Assay [2] deals with TZea-579 large stem loop (RNA, aptamer) GGGACCGGGUAGAACAGAAUGCAAGUGCGUAGAAGCGCCUCCGGUCCCCAAAAAAAAAAAAAAAAAAAAAAAA
As to conditions: Na+ (1.5 M NaCl [sic]), Mg2+ 0.5 mM; HBS-N (0.1 M HEPES [sic]), pH 7.4.

The test system of assay [3] is TZea-927 large stem loop (T7_zea927_polyA) (RNA, aptamer) GGGGUCCCUCCAUGCGACCCAGUGUGAUACGUGGACAGGACCCCCAAAAAAAAAAAAAAAAAAAAAAAA
The note with it: Na+ (1.5 M NaCl [sic]), Mg2+ 0.5 mM; HBS-N (0.1 M HEPES [sic]), pH 7.4.

In assay [4] the test system is TZea-579 (full length, G12A, SPR form) (RNA, ribozyme) GGGAAACAAACAAAGCUGUCACCGGGUAGAACAGAAUGCAAGUGCGUAGAAGCGCCUCCGGUCUGACGAGUCCUUAGCACGGACAAAACAGCAAAAAAAAAAAAAAAAAAAAAAAA
The note with it: Na+ (1.5 M NaCl [sic]), Mg2+ 0.5 mM; HBS-N (0.1 M HEPES [sic]), pH 7.4.

The test system of assay [5] is Gard-547 (full length, G12A, SPR form) (RNA, ribozyme) GGGAAACAAACAAAGCUGUCACCGGAAUAGUCGAUGGGUGCUACAUAGCGCCGGAAUCCAGUCUGAUGAGUCUCUCGGCAGGACAAAACAGCAAAAAAAAAAAAAAAAAAAAAAAA
As to conditions: Na+ (1.5 M NaCl [sic]), Mg2+ 0.5 mM; HBS-N (0.1 M HEPES [sic]), pH 7.4; no replicates.

The test system of assay [6] is SRet-584 (full length, G12A, SPR form) (RNA, ribozyme) GGGAAACAAACAAAGCUGUCACUGGACGCAAAAAUUCCAGUCUGAUGAGUCCAUAAUGAGCAACAACACGAUUCCUCAUGCGGGACAAAACAGCAAAAAAAAAAAAAAAAAAAAAAAA
As to conditions: Na+ (1.5 M NaCl [sic]), Mg2+ 0.5 mM; HBS-N (0.1 M HEPES [sic]), pH 7.4.

In assay [7] the test system is SRet-760 (full length, G12A, SPR form) (RNA, ribozyme) GGGAAACAAACAAAGCUGUCACUGGACCCUAACAUUCCAGUCUGAUGAGUCCUAUAGGCACGCUUCCCCCAGGUGUAGGGAGGACAAAACAGCAAAAAAAAAAAAAAAAAAAAAAAA
As to conditions: Na+ (1.5 M NaCl [sic]), Mg2+ 0.5 mM; HBS-N (0.1 M HEPES [sic]), pH 7.4.

In assay [8] the test system is SRet-760 large stem loop (T7_SRet760_polyA) (RNA, aptamer) GGGGUCCUAUAGGCACGCUUCCCCCAGGUGUAGGGAGGACCCCCAAAAAAAAAAAAAAAAAAAAAAAA
The note with it: Na+ (1.5 M NaCl [sic]), Mg2+ 0.5 mM; HBS-N (0.1 M HEPES [sic]), pH 7.4.

The test system of assay [9] is Nosc-786 (full length, G12A, SPR form) (RNA, ribozyme) GGGAAACAAACAAAGCUGUCACCGGAAGAACUUACAUUUGCAACGUCAUGUGCGAUGUCCAACGUGUAGCCACCUAGGCGUACAGAUCCGGUCCGAUGAGUCCUCGAUGGACAAAACAGCAAAAAAAAAAAAAAAAAAAAAAAA
The note with it: Na+ (1.5 M NaCl [sic]), Mg2+ 0.5 mM; HBS-N (0.1 M HEPES [sic]), pH 7.4.

Assay [10] has as its system Nosc-441 (full length, G12A, SPR form) (RNA, ribozyme) GGGAAACAAACAAAGCUGUCACCGGAAGAACUGACAUUUGCAACGUCAUGUGCGAUGUCCAACGUGUAGCCACCUAGGCGUACAGAUCCGGUCUGAUGAGUCCUCGAUGGACAAAACAGCAAAAAAAAAAAAAAAAAAAAAAAA
As to conditions: Na+ (1.5 M NaCl [sic]), Mg2+ 0.5 mM; HBS-N (0.1 M HEPES [sic]), pH 7.4.

For assay [11], the system named is Nosc-441 large stem loop (RNA, aptamer) GGGACCGGAAGAACUGACAUUUGCAACGUCAUGUGCGAUGUCCAACGUGUAGCCACCUAGGCGUACAGAUCCGGUCCCCAAAAAAAAAAAAAAAAAAAAAAAA
The note with it: Na+ (1.5 M NaCl [sic]), Mg2+ 0.5 mM; HBS-N (0.1 M HEPES [sic]), pH 7.4.

The subject of assay [12] is Theo-421 truncation, minimum free energy structure (T7_theo421_polyA_MFE) (RNA, aptamer) GGGGUCCCUCAUGUGCCUUCCAGCGGUACGAUACUCAGGACCCCCAAAAAAAAAAAAAAAAAAAAAAAA
The note with it: Na+ (1.5 M NaCl [sic]), Mg2+ 0.5 mM; HBS-N (0.1 M HEPES [sic]), pH 7.4.

The subject of assay [13] is Theo-421 (full length, G12A, SPR form) (RNA, ribozyme) GGGAAACAAACAAAGCUGUCACCGGAAUGUGAGUCCGGUCUGAUGAGUCCCUCAUGUGCCUUCCAGCGGUACGAUACUCAGGACAAAACAGCAAAAAAAAAAAAAAAAAAAAAAAA
The note with it: Na+ (1.5 M NaCl [sic]), Mg2+ 0.5 mM; HBS-N (0.1 M HEPES [sic]), pH 7.4.

For assay [14], the system named is Theo-421 truncation, 1st suboptimal structure (T7_theo421_polyA_subopt1) (RNA, aptamer) GGGUGAGUCCCUCAUGUGCCUUCCAGCGGUACGAUACUCACCCCAAAAAAAAAAAAAAAAAAAAAAAA
As to conditions: Na+ (1.5 M NaCl [sic]), Mg2+ 0.5 mM; HBS-N (0.1 M HEPES [sic]), pH 7.4.

The test system of assay [15] is Acic-145 large stem loop (T7_acic145_polyA) (RNA, aptamer) GGGACCGGAAUAACCGAAGUAGUUUAUGGGCUACCGAAAUCCGGUCCCCAAAAAAAAAAAAAAAAAAAAAAAA
The note with it: Na+ (1.5 M NaCl [sic]), Mg2+ 0.5 mM; HBS-N (0.1 M HEPES [sic]), pH 7.4.

Assay [16] relates to Acic-145 (full length, G12A, SPR form) (RNA, ribozyme) GGGAAACAAACAAAGCUGUCACCGGAAUAACCGAAGUAGUUUAUGGGCUACCGAAAUCCGGUCUGAUGAGUCCUCGGGGUGGACAAAACAGCAAAAAAAAAAAAAAAAAA
The note with it: Na+ (1.5 M NaCl [sic]), Mg2+ 0.5 mM; HBS-N (0.1 M HEPES [sic]), pH 7.4.

Each structure is given as a SMILES string.

Consider `C/C(=C\CNc1ncnc2[nH]cnc12)CO`, for which the figures for the dissociation constant (KD) in assay [1], in [2] and in [4] were 62 ± 20 µM, 37 ± 3 µM and 3.1 ± 0.5 µM, respectively. Moreover, the binding entry in [3] is on record as “no”.
In the case of `CCNCc1nc2c(N)nc3ccccc3c2n1CC(C)(C)O`, the KD (commonly the constant that tells how readily two partners part at equilibrium) in [5] was 0.0101 µM. That is a double-digit nanomolar value.
As to `COc1ccc(C[C@H]2c3cc(O)c(OC)cc3CCN2C)cc1O`, in [6], the “Equilibrium KD” value turned out to be 0.465 µM. Moreover, the KD in assay [7] was 0.15 ± 0.01 µM. In assay [8], the binding entry was “no”.
In the case of `COc1ccc2c(c1OC)C(=O)O[C@@H]2[C@H]1c2c(cc3c(c2OC)OCO3)CCN1C`, the “Equilibrium KD” value in assay [9] turned out to be 28.7 µM. The values for the KD in [10] and in assay [11] were 13 ± 2 µM and 20 ± 7 µM, respectively.
For the compound `Cn1c(=O)c2[nH]cnc2n(C)c1=O`, the binding result in assay [12] was “no”. The KD in assay [13] is listed as 68 ± 20 µM; in assay [14], 17.0 ± 0.7 µM.
As to `Nc1nc2c(ncn2COCCO)c(=O)[nH]1`, the KD in assay [15] came out at 0.700 ± 0.004 µM; in [16] it was 1.5 ± 0.3 µM.

(Values after article PMC7933316 (2021).)
